Measurements as given in patent US20140309257A1, “TOPOISOMERASE INHIBITORS AND METHODS OF MAKING AND USE AS THERAPEUTIC AGENTS” (THE REGENTS OF THE UNIVERSITY OF COLORADO, a body corporate, priority 2011, published 2014).

Key:
TopoIIα = TopoIIα (Homo sapiens, UniProt P11388); test: In vitro ATP hydrolysis assay (malachite green); type: biochemical
Description: Efficacy of the ATP-competitive inhibition of TopoIIα inhibitors of the invention are tested in vitro using an ATP hydrolysis assay that quantifies inorganic phosphate through the formation of a high molar absorptivity complex with malachite green and molybdate, adapted for use in 384-well plates, with a total reaction volume of 15 μL. This assay was first utilized to determine the Km of TopoIIα for its natural substrate, ATP, using ATP concentrations ranging from 62.5-1600 μM. To measure the apparent Km, the same reactions were repeated in the presence of 2, 5, or 10 μM neo. Absorbance at 620 nm was measured using a microtiter plate reader. To determine the Ki the same method was used with the following modifications: inhibitors (0.1-10 μM) in reaction buffer (without DNA and DTT) are added to the complete reaction buffer and preincubated for 10 min at 37° C. Reactions were initiated by the addition of 600 μM ATP and incubated for 30 min at 37° C. The IC50 value was determined and the Ki was calculated using the Cheng-Prusoff equation. Experiments were repeated in triplicate and GraphPad Prism software was used to perform non-linear fits (method of least squares) to the Michaelis-Menten kinetics (Km and Vmax) or the dose-response inhibition model (IC50 values).

[1] = test system: triple negative MDA-MB-231 breast carcinoma spheroids; test: 3D-spheroid invasion; type: cell-based, human; settings: through reversion of EMT
From the text: A 3D-spheroid culture formulation was developed that allows for the culture of single uniform spheroids with variety of cell types in 96-well plates that can be used with a variety of epithelial-mesenchymal transition (EMT) biomarker reporters (see, U.S. Patent Publication No. 2011/0143960 A1; Li Q, Chen C, Kapadia A, Zhou Q, Harper M K, et al. (2011), 3D Models of epithelial-mesenchymal transition in breast cancer metastasis: high-throughput screening assay development, validation, and pilot screen. J Biomol Screen 16: 141-154). The 3D-spheroid based assays with neo (control) and derivatives were used to test their ability to revert EMT or induce cytotoxicity against human carcinomas resistant to clinically used TopoIIα drugs, including: MDA-MB-231, MCF7/AdrVP breast cancer, and SW480, Colo201, and DLD-1 (APC mutant) colon cancer cells. This 3D-model utilizes a luciferase reporter of vimentin, a key mesenchymal biomarker expressed in these cells. Vimentin expression is measured using a live spheroid luciferin substrate (caged luciferin) followed by a multiplex assay measuring spheroid viability. […]
Active compounds are then tested for their ability to inhibit spheroid invasion, as follows: Spheroid invasion is measured using 15 spheroids per sample group. […] Invading cells will be measured using an OPERETTA™ high content imaging system.

[2] = test system: human colon tumor (HCT-116); settings: compared with 9-aminocamptothecin; cited from earlier work
xenograft tumors = settings: in mice; compared with etoposide; cited from earlier work
DNA = settings: below 100 μM concentrations; cited from earlier work
Pgp = Pgp (Homo sapiens, UniProt P08183); settings: cited from earlier work
Chain of Pgp (P08183 whole entry): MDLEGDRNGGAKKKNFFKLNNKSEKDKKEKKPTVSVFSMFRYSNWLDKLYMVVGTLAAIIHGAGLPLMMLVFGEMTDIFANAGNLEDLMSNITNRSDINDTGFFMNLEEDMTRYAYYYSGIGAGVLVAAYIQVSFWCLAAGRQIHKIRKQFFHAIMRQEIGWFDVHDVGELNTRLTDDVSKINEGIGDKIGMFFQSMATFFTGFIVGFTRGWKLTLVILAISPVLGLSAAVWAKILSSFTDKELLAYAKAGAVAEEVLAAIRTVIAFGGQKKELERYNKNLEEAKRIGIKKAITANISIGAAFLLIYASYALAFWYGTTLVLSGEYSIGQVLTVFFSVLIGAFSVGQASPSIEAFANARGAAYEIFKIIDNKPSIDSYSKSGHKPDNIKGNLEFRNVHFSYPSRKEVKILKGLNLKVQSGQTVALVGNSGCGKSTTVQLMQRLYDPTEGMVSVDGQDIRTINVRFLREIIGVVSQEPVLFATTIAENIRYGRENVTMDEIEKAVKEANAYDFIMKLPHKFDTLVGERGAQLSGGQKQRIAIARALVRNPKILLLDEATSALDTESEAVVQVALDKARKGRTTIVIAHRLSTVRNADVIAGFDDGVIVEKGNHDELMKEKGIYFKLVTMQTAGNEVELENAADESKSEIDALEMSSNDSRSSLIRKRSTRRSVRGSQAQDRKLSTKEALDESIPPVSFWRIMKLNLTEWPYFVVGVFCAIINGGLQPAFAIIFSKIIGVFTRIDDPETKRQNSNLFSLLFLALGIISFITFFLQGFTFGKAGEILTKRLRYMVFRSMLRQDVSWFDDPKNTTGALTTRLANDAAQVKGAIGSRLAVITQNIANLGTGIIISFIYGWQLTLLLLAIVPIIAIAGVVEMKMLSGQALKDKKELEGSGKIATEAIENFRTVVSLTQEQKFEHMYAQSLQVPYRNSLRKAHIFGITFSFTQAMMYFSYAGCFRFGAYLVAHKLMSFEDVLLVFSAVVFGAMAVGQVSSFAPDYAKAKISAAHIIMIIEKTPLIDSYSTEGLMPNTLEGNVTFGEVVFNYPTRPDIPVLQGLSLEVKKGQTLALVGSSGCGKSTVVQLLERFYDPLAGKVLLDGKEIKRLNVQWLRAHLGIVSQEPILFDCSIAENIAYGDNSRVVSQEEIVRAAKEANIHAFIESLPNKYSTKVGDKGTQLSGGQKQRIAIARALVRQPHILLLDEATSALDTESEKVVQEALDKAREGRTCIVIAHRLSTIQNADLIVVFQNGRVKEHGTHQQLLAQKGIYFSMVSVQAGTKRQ

Chain of TopoIIα (P11388 whole entry): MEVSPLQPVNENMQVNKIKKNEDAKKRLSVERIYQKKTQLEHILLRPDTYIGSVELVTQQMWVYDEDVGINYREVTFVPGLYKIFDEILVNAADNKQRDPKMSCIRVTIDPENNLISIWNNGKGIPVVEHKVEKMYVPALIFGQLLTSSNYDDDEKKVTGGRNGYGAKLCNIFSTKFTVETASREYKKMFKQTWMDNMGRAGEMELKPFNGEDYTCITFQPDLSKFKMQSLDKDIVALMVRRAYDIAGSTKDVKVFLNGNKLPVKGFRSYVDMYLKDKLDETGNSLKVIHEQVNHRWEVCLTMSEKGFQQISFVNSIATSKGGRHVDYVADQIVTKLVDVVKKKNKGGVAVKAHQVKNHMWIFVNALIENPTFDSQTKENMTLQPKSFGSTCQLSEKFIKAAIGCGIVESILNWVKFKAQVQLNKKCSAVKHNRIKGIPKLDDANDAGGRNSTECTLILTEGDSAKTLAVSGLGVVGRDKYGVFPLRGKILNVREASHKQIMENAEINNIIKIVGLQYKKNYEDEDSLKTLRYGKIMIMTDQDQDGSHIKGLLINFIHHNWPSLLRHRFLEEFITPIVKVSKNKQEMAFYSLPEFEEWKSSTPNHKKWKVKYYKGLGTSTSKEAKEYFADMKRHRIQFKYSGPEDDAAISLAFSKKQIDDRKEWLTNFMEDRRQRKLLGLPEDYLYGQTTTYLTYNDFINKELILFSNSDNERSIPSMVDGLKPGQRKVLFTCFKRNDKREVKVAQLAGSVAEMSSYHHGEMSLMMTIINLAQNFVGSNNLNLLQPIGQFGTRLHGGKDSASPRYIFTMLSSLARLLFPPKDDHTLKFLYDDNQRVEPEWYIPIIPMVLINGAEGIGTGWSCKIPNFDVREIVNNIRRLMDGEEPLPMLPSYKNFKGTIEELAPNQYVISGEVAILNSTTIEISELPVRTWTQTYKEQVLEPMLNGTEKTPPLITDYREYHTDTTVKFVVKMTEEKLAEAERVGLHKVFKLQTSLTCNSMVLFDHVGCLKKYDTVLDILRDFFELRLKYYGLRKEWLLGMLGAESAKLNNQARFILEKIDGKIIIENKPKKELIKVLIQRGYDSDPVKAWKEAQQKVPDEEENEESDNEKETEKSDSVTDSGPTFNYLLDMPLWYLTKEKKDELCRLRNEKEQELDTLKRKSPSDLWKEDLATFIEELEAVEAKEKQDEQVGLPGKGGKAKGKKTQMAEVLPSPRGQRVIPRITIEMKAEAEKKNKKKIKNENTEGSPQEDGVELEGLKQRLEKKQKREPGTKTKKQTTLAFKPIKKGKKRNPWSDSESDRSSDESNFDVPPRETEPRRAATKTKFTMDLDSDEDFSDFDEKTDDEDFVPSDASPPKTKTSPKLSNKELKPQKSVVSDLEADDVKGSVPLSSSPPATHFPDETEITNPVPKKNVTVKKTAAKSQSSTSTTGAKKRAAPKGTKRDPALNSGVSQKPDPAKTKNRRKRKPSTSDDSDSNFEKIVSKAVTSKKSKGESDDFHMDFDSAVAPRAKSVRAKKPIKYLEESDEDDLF

For `Cn1ccc2c(c1=O)C(=O)c1nccc3c1c-2nc1ccccc13` [neo, Neoamphimedine], the Ki (TopoIIα; corresponding to the IC50, calculated using the Cheng-Prusoff equation, read-out: Ki, inhibition of TopoIIα ATPase function) was 800 ± 300 nM, the “increase of the apparent Km of TopoIIα for ATP” value (TopoIIα; over a concentration range from 0-10 μM) was “approximately 2 fold” and the IC50 (TopoIIα; read-out: IC50, inhibition of TopoIIα ATPase function) was 2000 nM. The “inhibition of invasive potential of spheroids” value [1] was “significantly inhibits the invasive potential”, the “efficacy in HCT-116 xenografts” value [2] was “as efficacious as” and the “inhibition of the growth of xenograft tumors” value (xenograft tumors) was “as effective as etoposide”. For the same compound, the “stabilization of the cleaved complex, DNA strand breaks or intercalation of DNA” value (DNA) was “without stabilizing the cleaved complex, or causing significant DNA strand breaks or intercalation of DNA” and the “substrate for Pgp-dependent MDR” value (Pgp) was “not a substrate”.
